Results reported in patent US10793554B2, “Solid forms of 4-(2-fluoro-4-(1-methyl-1H-benzo[d]imidazol-5-yl)benzoyl)piperazin-1-yl)(1-hydroxycyclopropyl)methanone” (FORMA Therapeutics, Inc., priority 2018, dated 2020).
Converted amounts (≈) assume the structure as drawn. “Also recorded” adds a separate entry of the source. Blank lines part the entries; values can stand above or below the compound they belong to.

Assays:
Assay type in all cases: physicochemical
[1] = Slurry competition of Form B and Form C at different water activity (XRPD); settings: for Results (solid form after slurry competition): 4 days
Protocol: (§1) High resolution XRPD experiments were performed with Panalytical X′Pert^3 Powder XRPD on a Si zero-background holder. The 2θposition was calibrated against Panalytical 640 Si powder standard.
Form C was dissolved in three solvent mixtures (see Table 7) to get saturated solutions. Similar mass of Form B and Form C were added into the saturated solutions. The suspensions obtained were stirred at room temperature for 4 days and the solids collected were analyzed with XRPD.

[2] = Dynamic Vapor Sorption (DVS) of Form B
Description: DVS was obtained using a Surface Measurement System (SMS) DVS Intrinsic. The details of the method are providing in Table 4, below:
The sample was non-hygroscopic.

[3] = Kinetic solubility of Form B in formulation (0.5% MC, 0.5% Tween 80 in water), HPLC; settings: 0.5% MC and 0.5% Tween 80 in water
Protocol: High Pressure Liquid Chromatography (HPLC) data was obtained according to Table 5, below:
(§2) Kinetic solubility and phase stability of Form B was tested in a formulation (0.5% methyl cellulose (MC) and 0.5% Tween 80 in water). The sample was monitored by XRPD at 1, 2, 4 and 24 hours for phase stability. […] Kinetic solubility of Form B was measured in the same formulation at time points of 1, 2, 4 and 24 hour (Table 8). The supernatant was obtained by filtration and the concentration was measured by HPLC.

[4] = Phase stability of Form B in formulation (XRPD); settings: after 24 h; 0.5% MC and 0.5% Tween 80 in water
Protocol: as §1, §2

[5] = Slurry stability evaluation of Mixture A (XRPD of collected solids); settings: 4 days
Protocol: as §1
The solids collected were analyzed by XRPD to confirm the form change.

[6] = Chemical stability study at elevated temperature and controlled relative humidity
Protocol: A study was conducted on a sample of Compound 1 (Form B) where samples were exposed (open) to a range of elevated temperatures (50-80° C.) and controlled relative humidity (RH) (0-80% RH).

Results (solid form after slurry competition) ([1]; H2O/MeOH (85:915 v/v), Aw 0.25, RT): Form B
Results (solid form after slurry competition) ([1]; H2O/MeOH (225:775 v/v), Aw 0.5, RT): Form B
Results (solid form after slurry competition) ([1]; H2O/MeOH (494:506 v/v), Aw 0.75, 50° C.): Form B
form conversion in slurry competition (summary) ([1]; H2O/MeOH mixtures, Aw 0.25-0.75, 4 days): converted completely to Form B
Compound: Cn1cnc2cc(-c3ccc(C(=O)N4CCN(C(=O)C5(O)CC5)CC4)c(F)c3)ccc21 [Form B and Form C, (4-(2-fluoro-4-(1-methyl-1H-benzo[d]imidazol-5-yl)benzoyl)piperazin-1-yl)(1-hydroxycyclopropyl)methanone]

form change before and after DVS (XRPD) [2]: no form change
hygroscopicity (DVS) ([2]; 25° C.): non-hygroscopic
mass change (DVS) ([2]; from 0% RH to 95% RH at 25° C.): 0.46 wt %
solubility at 1 h ([3]; 0.5% methyl cellulose and 0.5% Tween 80 in water, aqueous with cosolvent or surfactant or cyclodextrin, thermodynamic from solid, 1 h, RT): 62 µg/mL (≈ 147 µM)
solubility at 2 h ([3]; 0.5% methyl cellulose and 0.5% Tween 80 in water, aqueous with cosolvent or surfactant or cyclodextrin, thermodynamic from solid, 2 h, RT): 62 µg/mL (≈ 147 µM)
solubility at 4 h ([3]; 0.5% methyl cellulose and 0.5% Tween 80 in water, aqueous with cosolvent or surfactant or cyclodextrin, thermodynamic from solid, 4 h, RT): 63 µg/mL (≈ 149 µM)
solubility at 24 h ([3]; 0.5% methyl cellulose and 0.5% Tween 80 in water, aqueous with cosolvent or surfactant or cyclodextrin, thermodynamic from solid, 24 h, RT): 60 µg/mL (≈ 142 µM)
Purity of solubility sample ([3]; 1 h): 97.8 % area at 240 nm
Purity of solubility sample ([3]; 2 h): 97.8 % area at 240 nm
Purity of solubility sample ([3]; 4 h): 97.7 % area at 240 nm
Purity of solubility sample ([3]; 24 h): 97.7 % area at 240 nm
course of solubility over time ([3]; during 24 hours at RT): remained stable
Compound: Cn1cnc2cc(-c3ccc(C(=O)N4CCN(C(=O)C5(O)CC5)CC4)c(F)c3)ccc21 [Form B, (4-(2-fluoro-4-(1-methyl-1H-benzo[d]imidazol-5-yl)benzoyl)piperazin-1-yl)(1-hydroxycyclopropyl)methanone]
degradation in the solubility sample / vehicle ([3]; up to 24 h): No significant degradation; also recorded: no form change or significant degradation
phase transformation / form change in formulation (XRPD) [4]: no phase transformation; also recorded: no form change

Results (solid form after slurry) ([5]; ACN, 50° C.): Form B
Results (solid form after slurry) ([5]; ACN, RT): Form B
form conversion of solids from the slurries (summary) ([5]; EtOAc or ACN, RT or 50° C.): converted to Form B completely
Results (solid form after slurry) ([5]; EtOAc, 50° C.): Form B
Results (solid form after slurry) ([5]; EtOAc, RT): Form B
Compound: Cn1cnc2cc(-c3ccc(C(=O)N4CCN(C(=O)C5(O)CC5)CC4)c(F)c3)ccc21 [Mixture A, (4-(2-fluoro-4-(1-methyl-1H-benzo[d]imidazol-5-yl)benzoyl)piperazin-1-yl)(1-hydroxycyclopropyl)methanone]

estimated shelf life ([6]; 25° C./60% RH, Form B sample): greater than 5 years
chemical stability ([6]; Form B sample exposed open to 50-80° C., 0-80% RH): good chemical stability
Compound: Cn1cnc2cc(-c3ccc(C(=O)N4CCN(C(=O)C5(O)CC5)CC4)c(F)c3)ccc21 [Compound 1, (4-(2-fluoro-4-(1-methyl-1H-benzo[d]imidazol-5-yl)benzoyl)piperazin-1-yl)(1-hydroxycyclopropyl)methanone]
